{
  "source": "patent US10550245B2",
  "about": "“Alternative methods to control crosslinking in high impact polystyrene” (Fina Technology, Inc., priority 2015, dated 2020)",
  "origin": "cited, not measured here",
  "note": "Read-outs that look alike come from different tables or passages of the source.",
  "data": [
    {"smiles": "CCCCCCCCSc1nc(Nc2cc(C(C)(C)C)c(O)c(C(C)(C)C)c2)nc(SCCCCCCCC)n1", "note": "[BNX ® 565, 2,6-di-tert-butyl-4-(4,6-bis(octylthio)-1,3,5-triazin-2-ylamino)phenol]", "values": [
      {"measurement": "Solubility (wt. %), Acetone", "setting": "Table 2", "value": 20, "unit": "wt. %"},
      {"measurement": "Solubility (wt. %), Benzene", "setting": "Table 2", "value": 43, "unit": "wt. %"},
      {"measurement": "Solubility (wt. %), Chloroform", "setting": "Table 2", "value": 39, "unit": "wt. %"},
      {"measurement": "Solubility (wt. %), Ethyl Acetate", "setting": "Table 2", "value": 46, "unit": "wt. %"},
      {"measurement": "Solubility (wt. %), Hexane", "setting": "Table 2", "value": 6, "unit": "wt. %"},
      {"measurement": "Solubility (wt. %), Methanol", "setting": "Table 2", "value": 1.4, "unit": "wt. %"},
      {"measurement": "Solubility (wt. %), Water", "setting": "Table 2", "value": "<0.01", "unit": "wt. %"}
    ]},
    {"smiles": "CC(C)(C)c1cc(CCC(=O)OCC(COC(=O)CCc2cc(C(C)(C)C)c(O)c(C(C)(C)C)c2)(COC(=O)CCc2cc(C(C)(C)C)c(O)c(C(C)(C)C)c2)COC(=O)CCc2cc(C(C)(C)C)c(O)c(C(C)(C)C)c2)cc(C(C)(C)C)c1O", "note": "[BNX ® 1010, tetrakis[methylene-3(3′,5′-di-tert-butyl-4-hydroxyphenyl)propionate]methane]", "values": [
      {"measurement": "Solubility (10 g/100 ml Toluene)", "setting": "10 g/100 ml Toluene, 25° C.", "value": "Clear (25° C.)"},
      {"measurement": "Solubility, Acetone", "setting": "at 25° C., Table 5B", "value": 47, "unit": "%"},
      {"measurement": "Solubility, Benzene", "setting": "at 25° C., Table 5B", "value": 56, "unit": "%"},
      {"measurement": "Solubility, Chloroform", "setting": "at 25° C., Table 5B", "value": 71, "unit": "%"},
      {"measurement": "Solubility, Ethanol", "setting": "at 25° C., Table 5B", "value": 1.5, "unit": "%"},
      {"measurement": "Solubility, Ethyl Acetate", "setting": "at 25° C., Table 5B", "value": 46, "unit": "%"},
      {"measurement": "Solubility, Hexane", "setting": "at 25° C., Table 5B", "value": 0.3, "unit": "%"},
      {"measurement": "Solubility, Methanol", "setting": "at 25° C., Table 5B", "value": 1, "unit": "%"},
      {"measurement": "Solubility, Methylene Chloride", "setting": "at 25° C., Table 5B", "value": 63, "unit": "%"},
      {"measurement": "Solubility, Toluene", "setting": "at 25° C., Table 5B", "value": 60, "unit": "%"},
      {"measurement": "Solubility, Water", "setting": "at 25° C., Table 5B", "value": "<0.01", "unit": "% ^"}
    ]},
    {"smiles": "CC(C)(C)c1cc(CCC(=O)NCCCCCCNC(=O)CCc2cc(C(C)(C)C)c(O)c(C(C)(C)C)c2)cc(C(C)(C)C)c1O", "note": "[BNX ® 1098]", "values": [
      {"measurement": "Solubility, 80% Caprolactam + 20% water", "setting": "at 25° C.", "value": 3, "unit": "g/100 ml solvent"},
      {"measurement": "Solubility, 95% Caprolactam + 5% water", "setting": "at 25° C.", "value": ">20", "unit": "g/100 ml solvent"},
      {"measurement": "Solubility, Acetone", "setting": "at 25° C.", "value": 2, "unit": "g/100 ml solvent"},
      {"measurement": "Solubility, Benzene", "setting": "at 25° C.", "value": 0.01, "unit": "g/100 ml solvent"},
      {"measurement": "Solubility, Caprolactam", "setting": "at 25° C.", "value": ">20", "unit": "g/100 ml solvent"},
      {"measurement": "Solubility, Chloroform", "setting": "at 25° C.", "value": 6, "unit": "g/100 ml solvent"},
      {"measurement": "Solubility, Ethyl Acetate", "setting": "at 25° C.", "value": 1, "unit": "g/100 ml solvent"},
      {"measurement": "Solubility, Hexane", "setting": "at 25° C.", "value": 0.01, "unit": "g/100 ml solvent"},
      {"measurement": "Solubility, Methanol", "setting": "at 25° C.", "value": 6, "unit": "g/100 ml solvent"},
      {"measurement": "Solubility, Water", "setting": "at 25° C.", "value": 0.01, "unit": "g/100 ml solvent"}
    ]}
  ]
}
